Reference: paper PMC9490176 (Frontiers in Pharmacology, 2022)

What was measured:
[1] = test system: pyrotinib metabolism in rat liver microsomes (RLMs); assay: In vitro drug-drug interaction study: azole inhibition of pyrotinib metabolism (M1 formation) in RLMs; type: in vitro ADME, Sprague-Dawley (SD) rat; conditions: for IC50: 0.3 mg/ml RLMs, 1 mM NADPH, 37°C, 30 min, n = 3; for Ki / αKi: RLMs, pyrotinib 1, 2, 4, 8 µM, Lineweaver-Burk analysis
Method: The rats were anesthetized with 10% chloral hydrate after 12 h of starvation. […] The rat liver tissue was then accurately removed and transferred to Petri dishes at 0–4°C. The tissues were homogenized in 0.15 mol/L KCl-PBS buffer and stored at 4°C. The homogenate (CR30NX, Eppendorf, Germany) was centrifuged at 9000 rpm at 4°C for 30 min. The supernatant was transferred to another tube and was centrifuged at 105000 rpm at 4°C for 60 min. The precipitate containing liver microsomes was removed and suspended in 0.15 mol/L KCl-PBS buffer (containing 0.25 mol/L sucrose) and stored at −80°C for later use. The liver microsomal concentration was 8.838 mg/ml after the determination with the BCA protein quantification kit (Thermo Scientific, Waltham, MA, United States).
Waters Acquity UPLC I-Class (Waters, USA) was used to separate pyrotinib and midazolam. A binary solvent manager (BSM) and sample manager with a flow-through needle (SM-FTN) were used in the UPLC system. The metabolites’ effective separation was achieved using Acquity UPLC HSS T3 (100 × 2.1 mm, 1.8 μm particle size) (Waters Corporation, Milford, MA, USA) with a mobile phase of acetonitrile (solvent A) and 0.1% formic acid water containing 20 mmol ammonium acetate (solvent B). The gradient program was set as following: 0–0.3 min 10–30% A; 0.3–1 min 30–95% A; 1–2 min 95% A; 2–2.3 min 95–10% A. The mobile phase’s flow rate was 0.4 mL/min, the column temperature was set as 40 °C, and the injection volume was 2 μL. The XEVO TQD triple quadrupole mass spectrometer was equipped with an electrospray ionization (ESI) source, and the multiple reaction monitoring (MRM) mode was selected for quantification. The data were collected using the Mass lynx 4.1 software (Waters Corp.). Mass spectral data were obtained in positive electrospray mode (ESI+) in MRM mode. Nitrogen was used as desolvation (1000 L/h) and cone gases (50 L/h). The ion monitoring voltage conditions were as follows: capillary voltage, 2.5 kV; source temperature, 150°C; desolvation temperature, 500°C. Various reaction monitoring methods were used for quantitative analysis.
200 µl of the incubation mixture was set up as following: 0.3 mg/ml RLMs, 100 mM potassium phosphate buffer (pH 7.4), 1 mM NADPH, and three azole antifungal drugs. […] For fluconazole and itraconazole, the concentrations of them were all adjusted to 0.01, 0.1, 1, 5, 10, 50, and 100 µM. […] The ingredients were combined and pre-warmed for 5 min at 37°C. The reaction was initiated with NADPH and incubated at 37°C for 30 min. Then, 200 µl of acetonitrile-midazolam solution (containing midazolam 200 ng/ml) was added and the mixture was vortexed for 2 min to stop the reaction. After been centrifuged at 13000 rpm for 5 min, 2 µl aliquot of the supernatant was then used for the UPLC-MS/MS analysis.
GraphPad Prism 7.0 software (GraphPad Software Inc.) was used to calculate the enzyme kinetic parameters of substrates which include Vmax, Km, IC50, Ki, and αKi values. The enzyme inhibition mode was obtained using the Linear Lineweaver-Burk plots. The PK characteristics, maximal plasma concentration (Cmax), time to peak plasma concentration (Tmax), apparent volume of distribution (Vz/F), area under the plasma concentration-time curve (AUC), elimination half-life (t1/2), plasma clearance (Cl/F), and mean residence time (MRT), were calculated using DAS (Drug and Statistics) software (Version 3.2.8, The People’s Hospital of Lishui, China). The one-way ANOVA and a Dunnet’s multiple range test were used for the statistical comparisons within groups with SPSS software (Version 25.0; SPSS Inc.). Statistical significance was set at p < 0.05.

[2] = In vivo pharmacokinetics of pyrotinib in rats with or without azole pretreatment; design: species or system Sprague-Dawley rats; conditions: rat, 40 mg/kg azole for 7 days, then 8 mg/kg pyrotinib oral
Method: Male Sprague-Dawley rats (180–220 g) were supplied by the Experimental Animal Center of Wenzhou Medical University. The animals were placed in a controlled environment of 20–26°C and 55 ± 15% relative humidity under a 12 h light-dark cycle. Except for the 12-h fasting period before the PK study, all rats were fed a standard rodent diet and freely consumed tap water. All experimental procedures and protocols were reviewed and approved by the Animal Care and Use Committee of the Wenzhou Medical University (No. wydw 2019-650), following the Guidelines for The Care and Use of Laboratory Animals. […] After the last administration of the three azoles or 0.5% CMC-Na (control group), a single dose of 8 mg/kg pyrotinib was administered orally to all rats in each group. Each group consisted of 6 rats. The azole antifungal medication was dissolved in 0.5% carboxymethylcellulose sodium solution (CMC-Na). […] The plasma was obtained by centrifuging the blood samples at 4000 rpm for 10 min at 4°C and stored at −80°C until analysis. The frozen plasma samples were thawed at room temperature and uniformly mixed; 50 μL of plasma sample was removed and mixed with 150 μL acetonitrile-midazolam solution (containing midazolam 200 ng/ml) to precipitate the proteins, followed by vortexing for 30 s and centrifuging at 13,000 rpm for 5 min. Then 150 μL of the supernatant was collected and placed into UPLC vials with 2 μL of sample was subjected to UPLC-MS/MS analysis. GraphPad Prism 7.0 software (GraphPad Software Inc.) was used to calculate the enzyme kinetic parameters of substrates which include Vmax, Km, IC50, Ki, and αKi values. The enzyme inhibition mode was obtained using the Linear Lineweaver-Burk plots. The PK characteristics, maximal plasma concentration (Cmax), time to peak plasma concentration (Tmax), apparent volume of distribution (Vz/F), area under the plasma concentration-time curve (AUC), elimination half-life (t1/2), plasma clearance (Cl/F), and mean residence time (MRT), were calculated using DAS (Drug and Statistics) software (Version 3.2.8, The People’s Hospital of Lishui, China). The one-way ANOVA and a Dunnet’s multiple range test were used for the statistical comparisons within groups with SPSS software (Version 25.0; SPSS Inc.). Statistical significance was set at p < 0.05.

[3] = design: method as in Shi et al., 2011; conditions: with ketoconazole compared with ruxolitinib alone; ref Shi et al., 2011; cited from earlier work

| inhibitory effect on pyrotinib in vivo [2] | SMILES | IC50 [1] [nM] | Ki [1] [nM] | αKi [1] [µM] | increase of plasma exposure [3] [%] |
| --- | --- | --- | --- | --- | --- |
| – | CC(=O)N1CCN(c2ccc(OCC3COC(Cn4ccnc4)(c4ccc(Cl)cc4Cl)O3)cc2)CC1 (centres unmarked) [ketoconazole, Ketoconazole] | 60 | 132 | 0.077 | – |
| no inhibitory effect | CCC(C)n1ncn(-c2ccc(N3CCN(c4ccc(OCC5COC(Cn6cncn6)(c6ccc(Cl)cc6Cl)O5)cc4)CC3)cc2)c1=O (centres unmarked) [itraconazole, Itraconazole] | 270 | 496 | 0.334 | – |
| – | N#CC[C@H](C1CCCC1)n1cc(-c2ncnc3[nH]ccc23)cn1 [ruxolitinib] | – | – | – | 91 |
